Measured values: patent publication US8119695B2, “Compounds and methods for treating breast cancer and other diseases” (City of Hope, priority 2003, dated 2012)
Several values for one entry are separate records, joined by “and”; a condition that tells them apart may be missing. Equal entries are not always repeated.

Tests used:
Type in all cases: cell-based
MH100x4 = MH100x4 luciferase reporter without receptor; details: Table 2, dose 5 (unit not given); for Reporter Activity: None 0.49; for Fold Activation: None 1.00
Source text: (§1) MH100x4 is a luciferase reporter with four copies of a GAL4 […] response element. GAL-L refers to the ligand-binding domain of the indicated receptor fused to the C-terminus of the GAL4 DNA binding domain.

ERRα (GAL-ERRa) = assay: MH100x4 luciferase reporter with GAL-ERRa; parameters: Reporter Activity: unit not given here
Source text: as §1

ERRβ (GAL-L-ERRb) = molecular target: T1, ERRβ (GAL-L-ERRb) (Homo sapiens, UniProt O95718); assay: MH100x4 luciferase reporter with GAL-L-ERRb; parameters: Reporter Activity: unit not given here
T1 construct: expressed in transfected cells
T1 sequence (O95718 208-432 limits assumed): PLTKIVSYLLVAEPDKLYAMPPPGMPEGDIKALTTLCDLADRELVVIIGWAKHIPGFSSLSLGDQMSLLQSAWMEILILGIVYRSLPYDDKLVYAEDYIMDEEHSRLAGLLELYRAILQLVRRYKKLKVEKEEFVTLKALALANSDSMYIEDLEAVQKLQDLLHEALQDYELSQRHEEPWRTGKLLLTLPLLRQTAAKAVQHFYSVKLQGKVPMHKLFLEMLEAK
Source text: as §1

ERRγ (GAL-ERRg) = assay: MH100x4 luciferase reporter with GAL-ERRg; parameters: Reporter Activity: unit not given here
Source text: as §1

ERE-TK-luc = ERE-TK-luc reporter without receptor, E2 100 nM
[1] = Table 2, dose 5 (unit not given), None 1.00
[2] = Table 2, dose 5 (unit not given), None 8.54
[3] = Table 2, dose 5 (unit not given), None 1.44
[4] = Table 2, dose 5 (unit not given), None 1.25
[5] = Table 3, dose 2.5 (unit not given), None 1

Compound	Reporter Activity (MH100x4)	Fold Activation (MH100x4)	Fold Activation (ERRα (GAL-ERRa); [1])	Reporter Activity (ERRα (GAL-ERRa); [2])	Fold Activation (ERRβ (GAL-L-ERRb); [1])	Reporter Activity (ERRβ (GAL-L-ERRb); [3])	Fold Activation (ERRγ (GAL-ERRg); [1])	Reporter Activity (ERRγ (GAL-ERRg); [4])	Fold Activation (ERRβ (GAL-L-ERRb); [5])	Reporter Activity (ERRβ (GAL-L-ERRb); Table 3, dose 2.5 (unit not given), None 2.38)	inhibition of the activity of ERRβ (ERRβ (GAL-L-ERRb); result in words)	inhibition of the activity of ERRγ (ERRγ (GAL-ERRg); result in words)	Fold Activation (ERRα (GAL-ERRa); [5])	Reporter Activity (ERRα (GAL-ERRa); Table 3, dose 2.5 (unit not given), None 8.18)	Fold Activation (ERRγ (GAL-ERRg); [5])	Reporter Activity (ERRγ (GAL-ERRg); Table 3, dose 2.5 (unit not given), None 2.2)	Reporter Activity (ERE-TK-luc)
C=CCc1cc(C(CC)=C(CC)c2ccc(O)c(CC=C)c2)ccc1O [DY22]	0.28	0.57	0.39	3.35	0.44	0.64	0.50	0.63	–	–	–	–	–	–	–	–	–
CC(C)/C(=C(\c1ccc(O)cc1)c1ccc(OCN(C)C)cc1)c1ccccc1 [DY35, (Z)-4-[1-(4-Dimethylaminomethoxy-phenyl)-3-methyl-2-phenyl-but-1-enyl]-phenol]	–	–	–	–	–	–	–	–	0.14	0.34	inhibit the activity	inhibit the activity	0.78	6.38	0.15	0.34	–
CCCCCCCCCCCCOc1ccc(C(CC)=C(CC)c2ccc(OCCCCCCCCCCCC)cc2)cc1 [DY15]	0.4	0.82	0.83	7.06	0.69	1	0.89	1.11	–	–	–	–	–	–	–	–	–
C=CCOc1ccc(C(CC)=C(CC)c2ccc(O)c(CC=C)c2)cc1 [DY21]	0.31	0.63	0.51	4.34	0.45	0.65	0.57	0.71	–	–	–	–	–	–	–	–	–
CC/C(=C(\c1ccc(O)cc1)c1ccc(OCCN(C)C)cc1)c1ccccc1 [4-OH Tamoxifen, (Z)-4-hydroxytamoxifen, reference compound]	–	–	–	–	–	–	–	–	–	–	–	–	–	–	–	–	1.2 and 0.98 and 1.58 and 1.48 and 1.61 and 1.34

The next lines start with results.

Reporter Activity (MH100x4)	Fold Activation (MH100x4)	Fold Activation (ERRα (GAL-ERRa); [1])	Reporter Activity (ERRα (GAL-ERRa); [2])	Fold Activation (ERRβ (GAL-L-ERRb); [1])	Reporter Activity (ERRβ (GAL-L-ERRb); [3])	Fold Activation (ERRγ (GAL-ERRg); [1])	Reporter Activity (ERRγ (GAL-ERRg); [4])	Fold Activation (ERRβ (GAL-L-ERRb); [5])	Reporter Activity (ERRβ (GAL-L-ERRb); Table 3, dose 2.5 (unit not given), None 2.38)	inhibition of the activity of ERRβ (ERRβ (GAL-L-ERRb); result in words)	inhibition of the activity of ERRγ (ERRγ (GAL-ERRg); result in words)	Compound	Fold Activation (ERRα (GAL-ERRa); [5])	Reporter Activity (ERRα (GAL-ERRa); Table 3, dose 2.5 (unit not given), None 8.18)	Fold Activation (ERRγ (GAL-ERRg); [5])	Reporter Activity (ERRγ (GAL-ERRg); Table 3, dose 2.5 (unit not given), None 2.2)	Reporter Activity (ERE-TK-luc)
0.35	0.71	0.75	6.39	0.70	1.01	0.81	1.01	–	–	–	–	C=CCOc1ccc(C(CC)=C(CC)c2ccc(OCC=C)cc2)cc1 [DY20]	–	–	–	–	–
0.35	0.71	0.66	5.63	0.49	0.71	0.91	1.14	–	–	–	–	CCC(=C(CC)c1ccc(O)c(C=C(C)C)c1)c1ccc(O)cc1 [DY16]	–	–	–	–	–
0.39	0.80	0.61	5.18	0.53	0.76	0.73	0.91	–	–	–	–	CCC(=C(CC)c1ccc(O)c(C(C)C)c1)c1ccc(O)cc1 [DY17]	–	–	–	–	–
